{
  "source": "patent US20260158011A1",
  "about": "(Achieve Life Sciences, Inc., priority 2023, published 2026)",
  "system": "adults smoking 10+ cigarettes daily",
  "details": "for Quit Rate, End-of-Treatment Week 4 / Quit Rate, Continuous Abstinence Weeks 5 to 8: CO<10 ppm confirmed; for Reduction in cigarettes smoked / Reduction in CO: 25 days; for Drug-placebo difference in quit rate: cytisinicline 3.0 mg TID; for Reduction in CO: expired CO; for Quit Rate, Continuous Abstinence Weeks 5 to 8: off treatment",
  "key": {"[1]": {"details": "cytisine 1.5 mg, downward titration (COM) schedule"}, "[2]": {"details": "cytisine 3.0 mg TID, listed as CYT"}, "[3]": {"details": "cytisine 3.0 mg TID, listed as Cytisinicline"}, "[4]": {"details": "cytisine 3.0 mg, downward titration (COM) schedule"}},
  "note": "Read-outs that look alike come from different tables or passages of the source.",
  "method": "This was a six-arm, multi-center, double-blind, randomized, placebo-controlled study conducted in male or female adults ≥18 years of age, smoking 10+ cigarettes daily, and willing to set a quit date that is 5-7 days after randomization. […] The study also evaluated the effectiveness of a simplified TID dosing schedule for 1.5 mg and an increased dose of 3.0 mg (using both the commercial titration (COM) and simplified TID dosing schedules).\nStudy treatment started the day after randomization such that study treatment was initiated prior to the quit date, as shown in FIG. 3.\nThe primary efficacy endpoint for this study was the percent reduction in the number of cigarettes smoked during treatment, which was calculated as follows:\nwhere N=total number of cigarettes smoked, B=number of cigarettes smoked at baseline and D=number of days.\nThe primary outcome (Cigarette Score) and the main secondary abstinence outcomes were subjected to sensitivity analyses. The main secondary abstinence outcomes were the initial quit rate at Week 4 and continued 4-week abstinence through Week 5 to Week 8, confirmed by expired carbon monoxide (CO) of <10 ppm designated as Cess/W5-8/CO Success.\nCarbon monoxide (CO) levels (ppm) were assessed during the study at screening, baseline, end of study treatment intervention (Week 4), and weekly through Week 8 (FIG. 9).\nSerum cotinine levels were exploratory and assessed only at screening, Week 4, and Week 8. Reported results for cotinine of <10 ng/mL were transformed to 0 ng/mL prior to statistical analysis.\nThe primary outcome was based on the number of cigarettes smoked on each day from a diary. The Cigarette Score used the diary data for the planned 25 days while on study treatment. Presented are sensitivity analyses for the comparison of the 3.0 mg TID arm and the pooled placebo arm related to variations on the primary analysis of Cigarette Score. The alternative definition of the Cigarette Score featured cigarettes recorded in the diary after the planned quit period of Days 5-7, that is, from Day 8 onward, instead of from Day 1 onward.\nAnother alterative analysis was based on re-analyses of the primary Cigarette Score and the above alternative Cigarette Score, with a weight related to the standard error of the mean number of cigarettes estimated from the diary entries. The weight used for each subject was 1/(SE)^2, where SE is the standard error of the mean estimate, and this type of weighting, referred to as inverse variance weighting, is used commonly. This weighting gives greater weight to means that are estimated with a smaller SE. A small modification to this definition of weight was necessary, however. In computing 1/(SE)^2, a specific rule was used when SE=0, specifically when all diary entry values were equal. In these cases, the SE was computed as if one and only one of the recorded values was larger by one. It can be shown that when this modification to the data is made SE=1/N, where N is the number of the subjects daily (days) entries.",
  "data": [
    {"compound": "O=c1cccc2n1C[C@@H]1CNC[C@H]2C1", "note": "[cytisine, (−)-Cytisine]", "values": [
      {"measurement": "Quit Rate, End-of-Treatment Week 4", "setting": "cytisine 1.5 mg TID", "value": 52, "unit": "%"},
      {"measurement": "Quit Rate, End-of-Treatment Week 4", "setting": "[1]", "value": 51, "unit": "%"},
      {"measurement": "Quit Rate, End-of-Treatment Week 4", "setting": "cytisine 3.0 mg TID", "value": 54, "unit": "%"},
      {"measurement": "Quit Rate, End-of-Treatment Week 4", "setting": "[2]", "value": 54, "unit": "%"},
      {"measurement": "Quit Rate, End-of-Treatment Week 4", "setting": "[3]", "value": 54, "unit": "%"},
      {"measurement": "Quit Rate, End-of-Treatment Week 4", "setting": "[4]", "value": 50, "unit": "%"},
      {"measurement": "Serum cotinine levels", "setting": "all cytisine-treated arms, Week 4", "value": "material reduction in cotinine levels"},
      {"measurement": "OR for initial quit rate at Week 4 versus placebo", "setting": "cytisine 1.5 mg TID", "value": 5.81},
      {"measurement": "OR for prolonged abstinence Week 5 to Week 8 versus placebo", "setting": "cytisine 1.5 mg TID", "value": 4.33},
      {"measurement": "Reduction in cigarettes smoked", "setting": "cytisine 1.5 mg TID", "value": 79, "unit": "%"},
      {"measurement": "OR for initial quit rate at Week 4 versus placebo", "setting": "cytisine 1.5 mg, COM schedule", "value": 5.59},
      {"measurement": "OR for prolonged abstinence Week 5 to Week 8 versus placebo", "setting": "cytisine 1.5 mg, COM schedule", "value": 3.23},
      {"measurement": "Reduction in cigarettes smoked", "setting": "[1]", "value": 80, "unit": "%"},
      {"measurement": "OR for initial quit rate at Week 4 versus placebo", "setting": "cytisine 3.0 mg TID", "value": 6.31},
      {"measurement": "OR for prolonged abstinence Week 5 to Week 8 versus placebo", "setting": "cytisine 3.0 mg TID", "value": 5.04},
      {"measurement": "Reduction in cigarettes smoked", "setting": "cytisine 3.0 mg TID", "value": 74, "unit": "%"},
      {"measurement": "OR for initial quit rate at Week 4 versus placebo", "setting": "[3]", "value": 6.3},
      {"measurement": "OR for prolonged abstinence Week 5 to Week 8 versus placebo", "setting": "[3]", "value": 5.0},
      {"measurement": "OR for initial quit rate at Week 4 versus placebo", "setting": "cytisine 3.0 mg, COM schedule", "value": 5.38},
      {"measurement": "OR for prolonged abstinence Week 5 to Week 8 versus placebo", "setting": "cytisine 3.0 mg, COM schedule", "value": 2.24},
      {"measurement": "Reduction in cigarettes smoked", "setting": "[4]", "value": 78, "unit": "%"},
      {"measurement": "Drug-placebo difference in quit rate", "setting": "4 weeks = end of treatment", "value": 38.3, "unit": "%"},
      {"measurement": "Drug-placebo difference in quit rate", "setting": "4 weeks off treatment (Weeks 5-8)", "value": 22.2, "unit": "%"},
      {"measurement": "Reduction in CO", "setting": "cytisine 1.5 mg TID", "value": 71, "unit": "%"},
      {"measurement": "Reduction in CO", "setting": "[1]", "value": 78, "unit": "%"},
      {"measurement": "Reduction in CO", "setting": "cytisine 3.0 mg TID", "value": 80, "unit": "%"},
      {"measurement": "Reduction in CO", "setting": "[4]", "value": 71, "unit": "%"},
      {"measurement": "Cigarette Score effect estimate (3.0 mg TID versus pooled placebo)", "setting": "not weighted, diary start: Quit Day (8th day after start of intervention)", "value": "−11.8"},
      {"measurement": "Cigarette Score effect estimate (3.0 mg TID versus pooled placebo)", "setting": "not weighted, diary start: start of intervention (primary outcome)", "value": "−9.5"},
      {"measurement": "Quit Rate, Continuous Abstinence Weeks 5 to 8", "setting": "cytisine 1.5 mg TID", "value": 27, "unit": "%"},
      {"measurement": "Quit Rate, Continuous Abstinence Weeks 5 to 8", "setting": "[1]", "value": 22, "unit": "%"},
      {"measurement": "Quit Rate, Continuous Abstinence Weeks 5 to 8", "setting": "cytisine 3.0 mg TID", "value": 30, "unit": "%"},
      {"measurement": "Quit Rate, Continuous Abstinence Weeks 5 to 8", "setting": "[2]", "value": 30, "unit": "%"},
      {"measurement": "Quit Rate, Continuous Abstinence Weeks 5 to 8", "setting": "[3]", "value": 30, "unit": "%"},
      {"measurement": "Quit Rate, Continuous Abstinence Weeks 5 to 8", "setting": "[4]", "value": 16, "unit": "%"},
      {"measurement": "Cigarette Score effect estimate (3.0 mg TID versus pooled placebo)", "setting": "weighted analysis, diary start: Quit Day (8th day after start of intervention)", "value": "−15.0"},
      {"measurement": "Cigarette Score effect estimate (3.0 mg TID versus pooled placebo)", "setting": "weighted analysis, diary start: start of intervention", "value": "−11.8"}
    ]}
  ]
}
